From US10399989B2, “Pyrazolopyrimidine derivatives as BTK inhibitors for the treatment of cancer” (Loxo Oncology, Inc., priority 2016, dated 2019)
Where two headings read alike, the source gives them in different places.

Assays:
BTK^WT = BTK^WT (Homo sapiens (Human), UniProt Q06187); assay: BTK^WT binding affinity (TR-FRET, LanthaScreen)
Experimental: BTK^WT binding affinity of each compound tested was determined using a time-resolved fluorescence resonance energy transfer (TR-FRET) methodology. 2.5 nM Recombinant BTK^WT kinase, varying concentrations of inhibitor, 2 nM LanthaScreen™ Eu anti-His Antibody and 15 nM Kinase Tracer 236 was incubated in 1× LanthaScreen™ Kinase Buffer A for 5 h. Recombinant BTK kinase and all LanthaScreen™ components were purchased from Invitrogen. Measurements were performed in a reaction volume of 30 μL using half-area 96-well assay plates. The TR-FRET signal was read on a plate reader with an excitation wavelength of 340 nm and detection wavelengths of 615 and 665 nm. Binding affinity was determined for each compound by measuring TR-FRET signal at various concentrations of compound and plotting the relative fluorescence units against the inhibitor concentration to estimate the IC50 from log [Inhibitor] vs response using the Variable Slope model in Graphpad prism from Graphpad software (SanDiego, Calif.).

BTK^C481S = BTK^C481S (Homo sapiens (Human), UniProt Q06187, C481S); assay: BTK^C481S binding affinity (TR-FRET, LanthaScreen); conditions: 5 h incubation
BTK^C481S, sequence (Q06187 whole entry C481S): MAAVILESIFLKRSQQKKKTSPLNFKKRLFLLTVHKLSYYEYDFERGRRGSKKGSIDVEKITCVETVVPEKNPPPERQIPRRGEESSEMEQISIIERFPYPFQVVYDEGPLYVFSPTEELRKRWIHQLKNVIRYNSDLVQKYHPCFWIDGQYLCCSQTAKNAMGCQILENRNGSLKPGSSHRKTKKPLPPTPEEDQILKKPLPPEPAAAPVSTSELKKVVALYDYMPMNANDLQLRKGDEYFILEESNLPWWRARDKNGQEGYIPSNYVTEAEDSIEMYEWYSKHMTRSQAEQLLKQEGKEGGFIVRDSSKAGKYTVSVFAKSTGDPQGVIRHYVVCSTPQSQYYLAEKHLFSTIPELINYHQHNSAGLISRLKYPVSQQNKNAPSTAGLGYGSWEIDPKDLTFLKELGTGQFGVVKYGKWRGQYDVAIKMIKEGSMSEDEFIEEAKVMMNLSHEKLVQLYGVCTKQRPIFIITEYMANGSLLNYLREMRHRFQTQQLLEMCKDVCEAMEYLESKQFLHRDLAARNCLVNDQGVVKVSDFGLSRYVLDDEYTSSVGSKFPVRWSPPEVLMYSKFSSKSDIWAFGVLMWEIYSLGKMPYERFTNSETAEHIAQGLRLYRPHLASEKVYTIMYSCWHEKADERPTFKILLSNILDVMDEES
Experimental: BTK^C481S binding affinity of each compound tested was determined using a time-resolved fluorescence resonance energy transfer (TR-FRET) methodology. 5 nM Recombinant […] kinase, varying concentrations of inhibitor, 2 nM LanthaScreen™ Eu anti-His Antibody and 30 nM Kinase Tracer 236 was incubated in 1× LanthaScreen™ Kinase Buffer A for 5 h. Recombinant BTK^C481S kinase was purchased from SignalChem and all LanthaScreen™ components were purchased from Invitrogen. Measurements were performed in a reaction volume of 30 μL using half-area 96-well assay plates. The TR-FRET signal was read on a plate reader with an excitation wavelength of 340 nm and detection wavelengths of 615 and 665 nm. Binding affinity was determined for each compound by measuring TR-FRET signal at various concentrations of compound and plotting the relative fluorescence units against the inhibitor concentration to estimate the IC50 from log [Inhibitor] vs response using the Variable Slope model in Graphpad prism from Graphpad software (SanDiego, Calif.).

EGFR = EGFR (Homo sapiens (Human), UniProt P00533); assay: EGFR binding affinity (TR-FRET, LanthaScreen); conditions: 5 h incubation
EGFR, sequence (P00533 25-1210): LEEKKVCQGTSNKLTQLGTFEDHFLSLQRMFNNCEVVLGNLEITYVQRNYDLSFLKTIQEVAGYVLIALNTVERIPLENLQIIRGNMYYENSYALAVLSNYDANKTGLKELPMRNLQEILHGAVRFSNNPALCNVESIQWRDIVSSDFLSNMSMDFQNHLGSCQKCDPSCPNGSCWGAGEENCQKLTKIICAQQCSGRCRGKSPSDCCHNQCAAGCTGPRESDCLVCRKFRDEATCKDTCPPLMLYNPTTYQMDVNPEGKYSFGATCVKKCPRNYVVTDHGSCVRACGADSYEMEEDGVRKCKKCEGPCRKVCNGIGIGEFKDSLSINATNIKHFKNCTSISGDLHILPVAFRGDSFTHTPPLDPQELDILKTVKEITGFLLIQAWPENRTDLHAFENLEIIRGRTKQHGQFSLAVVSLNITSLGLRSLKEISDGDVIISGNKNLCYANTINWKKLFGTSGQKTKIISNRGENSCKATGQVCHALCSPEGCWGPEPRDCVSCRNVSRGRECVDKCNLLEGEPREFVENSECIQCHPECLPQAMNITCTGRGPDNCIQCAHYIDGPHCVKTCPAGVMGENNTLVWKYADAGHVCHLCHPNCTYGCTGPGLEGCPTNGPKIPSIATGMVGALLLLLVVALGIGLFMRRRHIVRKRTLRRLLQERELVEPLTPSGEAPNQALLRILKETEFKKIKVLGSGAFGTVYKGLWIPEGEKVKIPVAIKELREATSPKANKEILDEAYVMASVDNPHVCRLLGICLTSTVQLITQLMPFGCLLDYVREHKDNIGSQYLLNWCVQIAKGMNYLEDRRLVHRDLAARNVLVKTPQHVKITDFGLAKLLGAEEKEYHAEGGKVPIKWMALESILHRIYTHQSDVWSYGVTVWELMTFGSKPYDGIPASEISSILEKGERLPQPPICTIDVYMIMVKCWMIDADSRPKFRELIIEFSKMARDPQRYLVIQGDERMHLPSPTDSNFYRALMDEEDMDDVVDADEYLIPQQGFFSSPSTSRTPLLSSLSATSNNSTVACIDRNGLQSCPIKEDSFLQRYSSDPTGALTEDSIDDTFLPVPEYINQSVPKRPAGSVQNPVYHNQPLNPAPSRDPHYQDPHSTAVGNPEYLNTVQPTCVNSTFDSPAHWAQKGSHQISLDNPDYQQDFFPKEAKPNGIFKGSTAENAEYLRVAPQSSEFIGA
Experimental: EGFR binding affinity was determined using a time-resolved fluorescence resonance energy transfer (TR-FRET) methodology. 2.5 nM Recombinant EGFR, varying concentrations of inhibitor, 2 nM LanthaScreen™ Eu anti-GST Antibody and 3 nM Kinase Tracer 199 was incubated in 1× LanthaScreen™ Kinase Buffer A for 5 h. Recombinant EGFR and all LanthaScreen™ components were purchased from Invitrogen. Measurements were performed in a reaction volume of 30 μL using half-area 96-well assay plates. The TR-FRET signal was read on a plate reader with an excitation wavelength of 340 nm and detection wavelengths of 615 and 665 nm. Binding affinity was determined for each compound by measuring TR-FRET signal at various concentrations of compound and plotting the relative fluorescence units against the inhibitor concentration to estimate the IC50 from log [Inhibitor] vs response using the Variable Slope model in Graphpad prism from Graphpad software (SanDiego, Calif.).

[1] = test system: OCI-Ly10 human DLBCL cells; assay: OCI-Ly10 anti-proliferative activity (Resazurin, 72 h); type: cell-based; conditions: read-out: Proliferation OCI-Ly10-IC50
Experimental: Compounds were assayed for effects on the growth of OCI-Ly10 human DLBCL cells that are dependent on NFκB signalling. OCI-Ly10 cells were grown in suspension in T225 flasks, centrifuged and re-suspended in 2.5% FBS containing media. Cells were then plated at 7.5×10^3 cells per well in 96-well plates in varying concentrations of compound and incubated for 72 h at 37° C. An additional plate of cells to be used as the Day 0 read was seeded without compound addition, Resazurin was added to each well, incubated for 5 h and the fluorescence measured at 590 nm. After 72 h of compound treatment, Resazurin was added to each well of the compound treated plates, incubated for 5 h and the fluorescence measured at 590 nm. The IC50 was then calculated by subtracting the average Day 0 value from each well value from the treated plates, each treatment was then calculated as a percentage of the DMSO control and the percentages plotted against the inhibitor concentration to estimate the IC50 from log [Inhibitor] vs response using the Variable Slope model in Graphpad prism from Graphpad software (SanDiego, Calif.).

[2] = TR-FRET binding, 5 h incubation, read-out: BTK^WT IC50
[3] = Table 6, numeric values, read-out: BTK Binding IC50

BTK^WT, sequence (Q06187 whole entry): as the sequence (Q06187 whole entry C481S) above, with S481C counted along it

Compound	IC50 (BTK^WT; [2]) [nM]	IC50 (BTK^WT; [3]) [nM]	IC50 (BTK^C481S) [nM]	IC50 (EGFR) [nM]	IC50 ([1]; Homo sapiens, OCI-Ly10, 72 h) [nM]	IC50 [1] [nM]
COc1ccccc1C(=O)NCc1ccc(-c2nn([C@@H]3CC[C@H](O)C3)c3ncnc(N)c23)cc1 (relative stereo) [Example 24, N-[[4-[4-amino-1-[(1R*,3S*)-3-hydroxycyclopentyl]pyrazolo[3,4-d]pyrimidin-3-yl]phenyl]methyl]-2-methoxy-benzamide]	≤ 10	2.2	≤ 10	100 to 1000	10 to 100	–
COc1ccccc1C(=O)NCc1ccc(-c2nn(C3CCC(O)CC3)c3ncnc(N)c23)cc1 (single isomer, unassigned) [Example 23-isomer1, N-[[4-[4-amino-1-(4-hydroxycyclohexyl)pyrazolo[3,4-d]pyrimidin-3-yl]phenyl]methyl]-2-methoxy-benzamide]	≤ 10	–	≤ 10	100 to 1000	–	100 to 1000
COc1ccccc1C(=O)NCc1ccc(-c2nn(C3CCC(O)CC3)c3ncnc(N)c23)cc1 (single isomer, unassigned) [Example 23-isomer2, N-[[4-[4-amino-1-(4-hydroxycyclohexyl)pyrazolo[3,4-d]pyrimidin-3-yl]phenyl]methyl]-2-methoxy-benzamide]	≤ 10	0.4	≤ 10	100 to 1000	–	10 to 100
COc1ccccc1C(=O)NCc1ccc(-c2nn(C3CCCC3)c3ncnc(N)c23)cc1 [Example 1, N-[[4-(4-amino-1-cyclopentyl-pyrazolo[3,4-d]pyrimidin-3-yl)phenyl]methyl]-2-methoxy-benzamide]	≤ 10	–	≤ 10	–	10 to 100	–
COc1ccccc1C(=O)NCc1ccc(-c2nn(C3CCCO3)c3ncnc(N)c23)cc1 (stereo not shown) [Example 5, N-[[4-(4-amino-1-tetrahydrofuran-2-yl-pyrazolo[3,4-d]pyrimidin-3-yl)phenyl]methyl]-2-methoxy-benzamide]	10 to 100	–	10 to 100	1000 to 10000	100 to 1000	–
COc1cc(C)ccc1C(=O)NCc1ccc(-c2nn(C3CCCC3)c3ncnc(N)c23)cc1 [Example 10, N-[[4-(4-amino-1-cyclopentyl-pyrazolo[3,4-d]pyrimidin-3-yl)phenyl]methyl]-2-methoxy-4-methyl-benzamide]	–	–	–	> 10000	100 to 1000	–
COc1ccc(C(F)(F)F)cc1C(=O)NCc1ccc(-c2nn(C3CCCC3)c3ncnc(N)c23)cc1 [Example 13, N-[[4-(4-amino-1-cyclopentyl-pyrazolo[3,4-d]pyrimidin-3-yl)phenyl]methyl]-2-methoxy-5-(trifluoromethyl)benzamide]	100 to 1000	–	–	> 10000	100 to 1000	–
COc1c(F)cccc1C(=O)NCc1ccc(-c2nn(C3CCCC3)c3ncnc(N)c23)cc1 [Example 14, N-[[4-(4-amino-1-cyclopentyl-pyrazolo[3,4-d]pyrimidin-3-yl)phenyl]methyl]-3-fluoro-2-methoxy-benzamide]	–	–	–	1000 to 10000	100 to 1000	–
COc1cc(F)ccc1C(=O)NCc1ccc(-c2nn(C3CCCC3)c3ncnc(N)c23)cc1 [Example 15, N-[[4-(4-amino-1-cyclopentyl-pyrazolo[3,4-d]pyrimidin-3-yl)phenyl]methyl]-4-fluoro-2-methoxy-benzamide]	–	–	–	1000 to 10000	10 to 100	–
COc1ccccc1C(=O)NC(C)c1ccc(-c2nn(C3CCCC3)c3ncnc(N)c23)cc1 (stereo not shown) [Example 64, N-[1-[4-(4-amino-1-cyclopentyl-pyrazolo[3,4-d]pyrimidin-3-yl)phenyl]ethyl]-2-methoxy-benzamide]	–	–	–	1000 to 10000	1000 to 10000	–

Results, then the compound that gave them:

IC50 (BTK^WT; [2]) [nM]	IC50 (BTK^WT; [3]) [nM]	IC50 (BTK^C481S) [nM]	IC50 (EGFR) [nM]	IC50 ([1]; Homo sapiens, OCI-Ly10, 72 h) [nM]	IC50 [1] [nM]	Compound
≤ 10	–	≤ 10	100 to 1000	–	100 to 1000	COc1ccccc1C(=O)NCc1ccc(-c2nn(C3CCC(C)(O)CC3)c3ncnc(N)c23)cc1 (single isomer, unassigned) [Example 91, N-[[4-[4-amino-1-(4-hydroxy-4-methyl-cyclohexyl)pyrazolo[3,4-d]pyrimidin-3-yl]phenyl]methyl]-2-methoxy-benzamide]
≤ 10	–	≤ 10	100 to 1000	–	10 to 100	COc1ccccc1C(=O)NCc1ccc(-c2nn(C3CCC(C)(O)CC3)c3ncnc(N)c23)cc1 (single isomer, unassigned) [Example 92, N-[[4-[4-Amino-1-(4-hydroxy-4-methyl-cyclohexyl)pyrazolo[3,4-d]pyrimidin-3-yl]phenyl]methyl]-2-methoxy-benzamide]
≤ 10	–	≤ 10	100 to 1000	10 to 100	–	COc1ccc(F)cc1C(=O)NCc1ccc(-c2nn(C3CCC(C)(O)CC3)c3ncnc(N)c23)cc1 (single isomer, unassigned) [Example 94, N-[[4-[4-Amino-1-(4-hydroxy-4-methyl-cyclohexyl)pyrazolo[3,4-d]pyrimidin-3-yl]phenyl]methyl]-5-fluoro-2-methoxy-benzamide]
≤ 10	–	≤ 10	100 to 1000	–	10 to 100	COc1ccc(F)cc1C(=O)NCc1ccc(-c2nn(C3CCC(C)(O)CC3)c3ncnc(N)c23)cc1 (single isomer, unassigned) [Example 95, N-[[4-[4-Amino-1-(4-hydroxy-4-methyl-cyclohexyl)pyrazolo[3,4-d]pyrimidin-3-yl]phenyl]methyl]-5-fluoro-2-methoxy-benzamide]
≤ 10	–	≤ 10	100 to 1000	–	10 to 100	COc1ccccc1C(=O)NCc1ccc(-c2nn(C3CCC(C(=O)N(C)C)CC3)c3ncnc(N)c23)cc1 (single isomer, unassigned; isomer 1) [33-isomer 1]
≤ 10	0.8	≤ 10	100 to 1000	10 to 100	–	COc1ccc(F)cc1C(=O)NCc1ccc(-c2nn(C3CCCC3)c3ncnc(N)c23)cc1 [Example 4, N-[[4-(4-Amino-1-cyclopentyl-pyrazolo[3,4-d]pyrimidin-3-yl)phenyl]methyl]-5-fluoro-2-methoxy-benzamide]
–	–	–	1000 to 10000	1000 to 10000	–	COc1cccc(F)c1C(=O)NCc1ccc(-c2nn(C3CCCC3)c3ncnc(N)c23)cc1 [Example 16, N-[[4-(4-amino-1-cyclopentyl-pyrazolo[3,4-d]pyrimidin-3-yl)phenyl]methyl]-2-fluoro-6-methoxy-benzamide]
10 to 100	–	10 to 100	–	100 to 1000	–	COc1ncccc1C(=O)NCc1ccc(-c2nn(C3CCCC3)c3ncnc(N)c23)cc1 [Example 18, N-[[4-(4-amino-1-cyclopentyl-pyrazolo[3,4-d]pyrimidin-3-yl)phenyl]methyl]-2-methoxy-pyridine-3-carboxamide]
≤ 10	–	≤ 10	–	10 to 100	–	COc1cc(-c2nn(C3CCCC3)c3ncnc(N)c23)ccc1CNC(=O)c1ccccc1OC [Example 75, N-[[4-(4-Amino-1-cyclopentyl-pyrazolo[3,4-d]pyrimidin-3-yl)-2-methoxy-phenyl]methyl]-2-methoxy-benzamide]
–	–	–	1000 to 10000	1000 to 10000	–	CC(C)c1ccccc1C(=O)NCc1ccc(-c2nn(C3CCCC3)c3ncnc(N)c23)cc1 [Example 80, N-[[4-(4-amino-1-cyclopentyl-pyrazolo[3,4-d]pyrimidin-3-yl)phenyl]methyl]-2-isopropyl-benzamide]
